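All cell lines were grown in 96-well plates and treated with compound for 48 hours. Here, GI50 denotes the concentration required for 50% inhibition of growth. TGI: total growth inhibition.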
Tests used:
Assay in all cases: NCI tumour cell line growth inhibition, 48 h
CAKI-1 renal = tested on: CAKI-1 renal
NCI-H23 lung = tested on: NCI-H23 lung
HCT-15 colon = tested on: HCT-15 colon
SR leukemia = tested on: SR leukemia
SK-OV-3 ovarian = tested on: SK-OV-3 ovarian
RXF 393 renal = tested on: RXF 393 renal
NCI-H226 lung = tested on: NCI-H226 lung
IGROV1 ovarian = tested on: IGROV1 ovarian
786-0 renal = tested on: 786-0 renal
HOP-18 NSCLC = tested on: HOP-18 NSCLC

Structure (SMILES) | GI50 (CAKI-1 renal) | TGI (CAKI-1 renal) | GI50 (NCI-H23 lung) | TGI (NCI-H23 lung) | GI50 (HCT-15 colon) | TGI (HCT-15 colon) | GI50 (SR leukemia) | TGI (SR leukemia) | GI50 (SK-OV-3 ovarian) | TGI (SK-OV-3 ovarian) | GI50 (RXF 393 renal) | TGI (RXF 393 renal) | GI50 (NCI-H226 lung) | TGI (NCI-H226 lung) | GI50 (IGROV1 ovarian) | TGI (IGROV1 ovarian) | GI50 (786-0 renal) | TGI (786-0 renal) | TGI (HOP-18 NSCLC)
Oc1ccccc1-c1nn(CNc2ccccc2Cl)c(=S)o1 | > 100000 nM | > 100 µM | > 100 µM | > 100 µM | 17.9 µM | 38.7 µM | 25.2 µM | 89.6 µM | > 100 µM | > 100 µM | > 100 µM | > 100 µM | > 100 µM | > 100 µM | > 100000 nM | > 100 µM | > 100 µM | > 100 µM | –
O=C(O)[C@H](c1ccccc1)[C@@H](C(=O)O)c1ccccc1 | – | > 100 µM | – | > 100 µM | – | > 100 µM | – | > 100 µM | – | > 100 µM | – | > 100 µM | – | > 100 µM | – | > 100 µM | – | > 100 µM | –
Nc1ncnc2c1ncn2CC(O)CO (stereo unspecified) | – | > 100 µM | – | > 100 µM | – | > 100 µM | – | – | – | > 100 µM | – | > 100 µM | – | > 100 µM | – | > 100 µM | – | > 100 µM | > 100 µM
Cc1ccccc1C(=O)N1CCN(C(=O)c2ccccc2C)CC1 | – | > 100 µM | – | > 100 µM | – | > 100 µM | – | > 100 µM | – | > 100 µM | – | > 100 µM | – | – | – | > 100 µM | – | > 100 µM | > 100 µM
Cc1c2ccccc2cc2ccc3oc([N+](=O)[O-])cc3c12 | – | > 100 µM | – | – | – | > 100 µM | – | – | – | > 100 µM | – | > 100 µM | – | – | – | > 100 µM | – | > 100 µM | 62.8 µM
O=C(Nc1ccc(Cl)c(Cl)c1)NS(=O)(=O)c1cnccc1Oc1ccc(F)cc1 | 2500 nM | 8.23 µM | 3.37 µM | 24.5 µM | 3.32 µM | > 100 µM | 2.55 µM | 10.2 µM | 3.87 µM | 18.2 µM | 3.8 µM | > 100 µM | 9.77 µM | > 100 µM | 2690 nM | 8.59 µM | 4.51 µM | 70.9 µM | –
N#CNC(N)=Nc1ccc(Cl)cc1 | – | > 100 µM | – | > 100 µM | – | > 100 µM | – | > 100 µM | – | > 100 µM | – | > 100 µM | – | > 100 µM | – | > 100 µM | – | > 100 µM | –
O=C(O)c1ccccc1/C=N/N=C1c2ccccc2-c2ccccc21 | – | > 100 µM | – | > 100 µM | – | > 100 µM | – | 95.5 µM | – | > 100 µM | – | 75.8 µM | – | 41.6 µM | – | > 100 µM | – | > 100 µM | –
O=S(=O)(CCCl)c1ccc(Cl)cc1 | 2900 nM | 13.2 µM | 4.79 µM | 20.6 µM | 2.92 µM | 12.4 µM | 3.41 µM | > 100 µM | 11.7 µM | 98.1 µM | 2.32 µM | 8.96 µM | 16 µM | > 100 µM | 2410 nM | 7.44 µM | 6.41 µM | 21.4 µM | –

— PubChem BioAssay (NCI)
